Paper PMC9913752, “Proof-of-Concept Study of an Alpha-Fetoprotein-Derived Peptide for the Management of Canine Mammary Cancer” (Animals : an Open Access Journal from MDPI, 2023)
Where a SMILES comes first, the peptide text is derived from it. [ ]: non-standard residue; d: D form. Hyp = O=C(O)[C@@H]1C[C@@H](O)CN1

Test: 8-day repeat-dose study, tolerability (blood chemistry, hematology, adverse events) in tumor-bearing dogs
Assay type: in vivo, dog
Settings: Post: 30 min after last injection on day 8, 10 mg s.c. once daily for 8 days
Text: Previous studies utilizing repeat dosing in mice and rats established safe starting doses for studies using dogs. Female dogs with one or more spontaneously occurring mammary gland tumors greater than approximately 2 cm in maximum diameter, presenting to the Cancer Institute at the Schwarzman Animal Medical Center in New York City, were screened for inclusion in the study. […] All dogs underwent complete clinical staging, consisting of a complete blood count with cell differential, clinical chemistry, and urinalysis. Dogs were administered AFPep 10 mg s.c. once daily for 8 consecutive days. Tumors were biopsied prior to the administration of AFPep and were surgically removed on day 8 after the last injection of AFPep. Blood levels of AFPep were measured before and 30 minutes following its administration on the first day and eighth day of treatment with AFPep. Histopathology was obtained on all mammary gland tumors. Tolerability was assessed using the Veterinary Cooperative Oncology Group Common Terminology Criteria for Adverse Events. Blood chemistry and hematology analyses were performed at IDEXX Laboratories Inc. (Westbrook, ME, USA), using the Sysmex XT and Beckman AU 5800 systems. This study was approved by the Schwarzman Animal Medical Center IACUC and informed consent was obtained in writing from all owners.

With CC(C)[C@@H]1NC(=O)[C@@H]2C[C@@H](O)CN2C(=O)[C@H]([C@@H](C)O)NC(=O)[C@H](CCCCN)NC(=O)[C@H](CCC(=O)O)NC(=O)[C@H](CC(N)=O)NC(=O)CNC(=O)[C@@H]2C[C@@H](O)CN2C(=O)[C@H](CC(N)=O)NC1=O [AFPep] (cyclo(EKT[Hyp]VN[Hyp]GN)) the WBC (Dog 3) was 6 10^3/µL, the ALP (Dog 4) was 148 U/L and the ALT (Dog 4) was 60 U/L. For the same compound, the AST (Dog 4) was 23 U/L, the Albumin (Dog 4) was 3 g/dL and the BUN (Dog 4) was 24 mg/dL. For the same compound, the Bicarbonate (Dog 4) was 17 mmol/L, the Bilirubin Conj. (Dog 4) was 0.1 mg/dL and the Calcium (Dog 4) was 10 mg/dL. For the same compound, the Chloride (Dog 4) was 114 mmol/L, the Cholesterol (Dog 4) was 451 mg/dL and the Creatine Kinase (Dog 4) was 169 U/L. It also gave a GGT (Dog 4) of 6 U/L, a Globulin (Dog 4) of 4 g/dL and a Glucose (Dog 4) of 92 mg/dL. For the same compound, the HCT (Dog 4) was 51%, the HGB (Dog 4) was 18 g/dL and the MCH (Dog 4) was 23 pg. The MCV (Dog 4) was 62 fL, the Phosphorous (Dog 4) was 3 mg/dL and the Platelets (Dog 4) was 485 10^3/µL. For the same compound, the Potassium (Dog 4) was 4.4 mmol/L, the RBC (Dog 4) was 8 10^6/µL and the Sodium (Dog 4) was 147 mmol/L. The Total Bilirubin (Dog 4) was 0.1 mg/dL, the Total Protein (Dog 4) was 6 g/dL and the WBC (Dog 4) was 13 10^3/µL. The ALP (Dog 5) was 15 U/L, the ALT (Dog 5) was 29 U/L and the AST (Dog 5) was 26 U/L. It also gave an Albumin (Dog 5) of 4 g/dL, a BUN (Dog 5) of 15 mg/dL and a Bicarbonate (Dog 5) of 21 mmol/L. For the same compound, the Bilirubin Conj. (Dog 5) was 0.1 mg/dL, the Calcium (Dog 5) was 10 mg/dL and the Chloride (Dog 5) was 110 mmol/L. It also gave a Cholesterol (Dog 5) of 373 mg/dL, a Creatine Kinase (Dog 5) of 138 U/L and a GGT (Dog 5) of 18 U/L. For the same compound, the Globulin (Dog 5) was 3 g/dL, the Glucose (Dog 5) was 88 mg/dL and the HCT (Dog 5) was 48%. It also gave an HGB (Dog 5) of 18 g/dL, an MCH (Dog 5) of 25 pg and an MCV (Dog 5) of 67 fL. For the same compound, the Phosphorous (Dog 5) was 3 mg/dL, the Platelets (Dog 5) was 462 10^3/µL and the Potassium (Dog 5) was 5 mmol/L. The RBC (Dog 5) was 7 10^6/µL, the Sodium (Dog 5) was 143 mmol/L and the Total Bilirubin (Dog 5) was 0.1 mg/dL. For the same compound, the Total Protein (Dog 5) was 7 g/dL, the WBC (Dog 5) was 7 10^3/µL and the ALP (Dog 6) was 19 U/L. For the same compound, the ALT (Dog 6) was 41 U/L, the AST (Dog 6) was 18 U/L and the Albumin (Dog 6) was 3 g/dL. It also gave a BUN (Dog 6) of 30 mg/dL, a Bicarbonate (Dog 6) of 21 mmol/L and a Bilirubin Conj. (Dog 6) of 0.1 mg/dL. It also gave a Calcium (Dog 6) of 10 mg/dL, a Chloride (Dog 6) of 114 mmol/L and a Cholesterol (Dog 6) of 198 mg/dL. For the same compound, the Creatine Kinase (Dog 6) was 80 U/L, the GGT (Dog 6) was 5 U/L and the Globulin (Dog 6) was 3 g/dL. The Glucose (Dog 6) was 81 mg/dL, the HCT (Dog 6) was 43% and the HGB (Dog 6) was 15 g/dL. For the same compound, the MCH (Dog 6) was 25 pg, the MCV (Dog 6) was 74 fL and the Phosphorous (Dog 6) was 6 mg/dL. For the same compound, the Platelets (Dog 6) was 519 10^3/µL, the Potassium (Dog 6) was 4 mmol/L and the RBC (Dog 6) was 6 10^6/µL. For the same compound, the Sodium (Dog 6) was 143 mmol/L, the Total Bilirubin (Dog 6) was 0.1 mg/dL and the Total Protein (Dog 6) was 6 g/dL. The WBC (Dog 6) was 13 10^3/µL.
